We go through two compounds from ChEMBL document CHEMBL3882241, “Compounds inhibiting the binding of sap for treating osteoarthritis” (2006).

The target in assay [1] is Serum amyloid P-component (Homo sapiens) (UniProt P02743). The assay can be described thus: Inhibition of serum amyloid P-component (unknown origin) binding to immobilized amyloid beta 1 to 42 fibrils at 500 umol/L in presence of calcium by surface plasma resonance.
The target is the same in assay [2]. The assay can be described thus: Inhibition of serum amyloid P-component (unknown origin) binding to immobilized amyloid beta 1 to 42 fibrils at 100 umol/L pre-incubated before calcium addition by surface plasma resonance.
Assay [3] shares this target. The assay can be described thus: Inhibition of calcium dependent [125I]serum amyloid P-component (unknown origin) binding to immobilized Neisseria meningitidis at 20 uM incubated for 2 hrs by fluorescence/electron microscopy relative to control.
Assay [4] shares this target. The assay can be described thus: Inhibition of calcium dependent [125I]serum amyloid P-component (unknown origin) binding to immobilized Neisseria meningitidis at 2 uM incubated for 2 hrs by fluorescence/electron microscopy relative to control.
Assay [5] has the same target. The assay can be described thus: Inhibition of calcium dependent [125I]serum amyloid P-component (unknown origin) binding to immobilized Neisseria meningitidis at 200 nM incubated for 2 hrs by fluorescence/electron microscopy relative to control.
Assay [6] shares this target. The assay can be described thus: Inhibition of calcium dependent [125I]serum amyloid P-component (unknown origin) binding to immobilized influenza virus A/Shanghai/24/90 at 200 uM incubated for 2 hrs by fluorescence/electron microscopy relative to control.
For assay [7] the target is unchanged. The assay can be described thus: Inhibition of calcium dependent [125I]serum amyloid P-component (unknown origin) binding to immobilized influenza virus A/Shanghai/24/90 at 20 uM incubated for 2 hrs by fluorescence/electron microscopy relative to control.
The target is the same in assay [8]. The assay can be described thus: Inhibition of calcium dependent [125I]serum amyloid P-component (unknown origin) binding to immobilized influenza virus A/Shanghai/24/90 at 2 uM incubated for 2 hrs by fluorescence/electron microscopy relative to control.
The target is the same in assay [9]. The assay can be described thus: Inhibition of calcium dependent [125I]serum amyloid P-component (unknown origin) binding to immobilized influenza virus A/Shanghai/24/90 at 200 nM incubated for 2 hrs by fluorescence/electron microscopy relative to control.
Assay [10] has the same target. The assay can be described thus: Inhibition of serum amyloid P-component (unknown origin) binding to immobilized amyloid beta 1 to 42 fibrils in presence of EDTA followed by re-exposure to SAP and calcium addition and re-exposure to compound at 50 umol/L by surface plasma resonance.
The target is the same in assay [11]. The assay can be described thus: Inhibition of calcium dependent [125I]serum amyloid P-component (unknown origin) binding to immobilized Neisseria meningitidis at 2 mM incubated for 2 hrs by fluorescence/electron microscopy relative to control.
For assay [12] the target is unchanged. The assay can be described thus: Inhibition of calcium dependent [125I]serum amyloid P-component (unknown origin) binding to immobilized Neisseria meningitidis at 200 uM incubated for 2 hrs by fluorescence/electron microscopy relative to control.
For assay [13] the target is unchanged. The assay can be described thus: Inhibition of calcium dependent [125I]serum amyloid P-component (unknown origin) binding to immobilized chicken erythrocyte native long chromatin at 2 mM incubated for 2 hrs by gamma counting relative to control.
Assay [14] shares this target. The assay can be described thus: Inhibition of calcium dependent [125I]serum amyloid P-component (unknown origin) binding to immobilized chicken erythrocyte native long chromatin at 200 uM incubated for 2 hrs by gamma counting relative to control.
Assay [15] shares this target. The assay can be described thus: Inhibition of calcium dependent [125I]serum amyloid P-component (unknown origin) binding to immobilized chicken erythrocyte native long chromatin at 20 uM incubated for 2 hrs by gamma counting relative to control.
Assay [16] shares this target. The assay can be described thus: Inhibition of calcium dependent [125I]serum amyloid P-component (unknown origin) binding to immobilized chicken erythrocyte native long chromatin at 2 uM incubated for 2 hrs by gamma counting relative to control.
Assay [17] has the same target. The assay can be described thus: Inhibition of calcium dependent [125I]serum amyloid P-component (unknown origin) binding to immobilized chicken erythrocyte native long chromatin at 200 nM incubated for 2 hrs by gamma counting relative to control.
Assay [18] has the same target. The assay can be described thus: Inhibition of calcium dependent [125I]serum amyloid P-component (unknown origin) binding to immobilized influenza virus A/Shanghai/24/90 at 2 mM incubated for 2 hrs by fluorescence/electron microscopy relative to control.
Assay [19] has as its system Homo sapiens. The assay can be described thus: Reduction of serum amyloid P-component in amyloidosis patient at 10 mg, sc bid for 3 months. Format: functional.
Assay [20] concerns Homo sapiens. The assay can be described thus: Reduction of serum amyloid P-component in amyloidosis patient at 15 mg, sc bid for 2 months. Format: functional.

Activity calls are given as the source filed them. The calls are words filed in the database; no cut-off is given here.

Sequence of Serum amyloid P-component (Homo sapiens) (P02743 whole entry): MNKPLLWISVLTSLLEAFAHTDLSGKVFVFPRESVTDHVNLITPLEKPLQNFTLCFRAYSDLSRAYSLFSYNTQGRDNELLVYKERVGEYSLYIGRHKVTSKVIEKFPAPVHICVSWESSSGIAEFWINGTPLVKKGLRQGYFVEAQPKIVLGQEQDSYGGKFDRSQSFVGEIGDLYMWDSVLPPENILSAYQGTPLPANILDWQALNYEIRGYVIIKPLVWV

For the compound `C[C@H](CS)C(=O)N1CCC[C@@H]1C(=O)O`, the inhibition entry in assay [1], in assay [2] and in assay [10] was “Active” throughout. In addition, the inhibition is 50% in assay [3]; 42% in assay [4]; 3% in [5]; 51% in assay [6]; 40% in [7]; 30% in assay [8]. Besides, in assay [9], the inhibition is 12%.
As for `O=C(O)[C@H]1CCCN1C(=O)CCCCC(=O)N1CCC[C@@H]1C(=O)O`, the inhibition is 100% in assay [11]; 79% in assay [12]; 74% in assay [3]; 61% in assay [4]; 5% in assay [5]; 93% in [13]. For the same compound, the inhibition worked out at 87% in assay [14]; 69% in [15]; 29% in assay [16]; 1% in [17]; 98% in [18]; 96% in assay [6]. In addition, the inhibition in assay [7] worked out at 90%; in assay [8] it was 81%; in assay [9], 36%. Also, the “inhibition (INH)” value in assay [19] and in assay [20] was 95% in each case.

A word on the inhibition: it is the relative decrease from the control value, in per cent.
